Measured values as given in the NIST ThermoML archive (doi:10.1021/acs.jced.5b00259).
Numbers after ± are expanded uncertainties.

Test: xn = mol fraction of the nth substance listed
Details: 100 kPa, Liquid

**Q.** What does the source list for `CC[NH+]=C(N(C)C)N(C)C.O=S(=O)([N-]S(=O)(=O)C(F)(F)F)C(F)(F)F` + CCCO?
**A.** mass density (308.15 K, x1 = 0.5962): 1313.87 ± 4.1 kg/m3; viscosity (308.15 K, x1 = 0.5962): 16.47 ± 0.71 mPa·s; mass density (308.15 K, x1 = 0.6997): 1342.09 ± 5.7 kg/m3; viscosity (308.15 K, x1 = 0.6997): 20.85 ± 0.92 mPa·s; mass density (308.15 K, x1 = 0.7931): 1363.32 ± 7.4 kg/m3; viscosity (308.15 K, x1 = 0.7931): 25.37 ± 1.1 mPa·s; mass density (308.15 K, x1 = 0.9014): 1384.21 ± 9.7 kg/m3; viscosity (308.15 K, x1 = 0.9014): 31.53 ± 1.5 mPa·s; mass density (308.15 K, x1 = 1): 1400.38 ± 12 kg/m3; viscosity (308.15 K, x1 = 1): 38.71 ± 1.8 mPa·s; mass density (313.15 K, x1 = 0.1024): 979.55 ± 0.38 kg/m3; viscosity (313.15 K, x1 = 0.1024): 2.63 ± 0.11 mPa·s; mass density (313.15 K, x1 = 0.2019): 1096.13 ± 0.61 kg/m3; viscosity (313.15 K, x1 = 0.2019): 4.093 ± 0.17 mPa·s; mass density (313.15 K, x1 = 0.2973): 1173.18 ± 1.1 kg/m3; viscosity (313.15 K, x1 = 0.2973): 5.966 ± 0.24 mPa·s; mass density (313.15 K, x1 = 0.4011): 1233.59 ± 1.9 kg/m3; viscosity (313.15 K, x1 = 0.4011): 8.525 ± 0.35 mPa·s; mass density (313.15 K, x1 = 0.4988): 1276.07 ± 2.9 kg/m3; viscosity (313.15 K, x1 = 0.4988): 11.21 ± 0.47 mPa·s; mass density (313.15 K, x1 = 0.5962): 1309.06 ± 4.1 kg/m3; viscosity (313.15 K, x1 = 0.5962): 14.12 ± 0.61 mPa·s; mass density (313.15 K, x1 = 0.6997): 1337.29 ± 5.7 kg/m3; viscosity (313.15 K, x1 = 0.6997): 17.73 ± 0.78 mPa·s; mass density (313.15 K, x1 = 0.7931): 1358.51 ± 7.4 kg/m3; viscosity (313.15 K, x1 = 0.7931): 21.42 ± 0.97 mPa·s; mass density (313.15 K, x1 = 0.9014): 1379.42 ± 9.7 kg/m3; viscosity (313.15 K, x1 = 0.9014): 26.43 ± 1.2 mPa·s; mass density (313.15 K, x1 = 1): 1395.59 ± 12 kg/m3; viscosity (313.15 K, x1 = 1): 32.2 ± 1.5 mPa·s; mass density (318.15 K, x1 = 0.1024): 975.03 ± 0.39 kg/m3; viscosity (318.15 K, x1 = 0.1024): 2.34 ± 0.094 mPa·s; mass density (318.15 K, x1 = 0.2019): 1091.46 ± 0.6 kg/m3; viscosity (318.15 K, x1 = 0.2019): 3.684 ± 0.15 mPa·s; mass density (318.15 K, x1 = 0.2973): 1168.42 ± 1.1 kg/m3; viscosity (318.15 K, x1 = 0.2973): 5.248 ± 0.21 mPa·s; mass density (318.15 K, x1 = 0.4011): 1228.78 ± 1.9 kg/m3; viscosity (318.15 K, x1 = 0.4011): 7.433 ± 0.31 mPa·s; mass density (318.15 K, x1 = 0.4988): 1271.27 ± 2.9 kg/m3; viscosity (318.15 K, x1 = 0.4988): 9.743 ± 0.41 mPa·s; mass density (318.15 K, x1 = 0.5962): 1304.24 ± 4.1 kg/m3; viscosity (318.15 K, x1 = 0.5962): 12.24 ± 0.53 mPa·s; mass density (318.15 K, x1 = 0.6997): 1332.49 ± 5.6 kg/m3; viscosity (318.15 K, x1 = 0.6997): 15.26 ± 0.67 mPa·s; mass density (318.15 K, x1 = 0.7931): 1353.72 ± 7.3 kg/m3; viscosity (318.15 K, x1 = 0.7931): 18.28 ± 0.82 mPa·s; mass density (318.15 K, x1 = 0.9014): 1374.63 ± 9.6 kg/m3; viscosity (318.15 K, x1 = 0.9014): 22.43 ± 1 mPa·s; mass density (318.15 K, x1 = 1): 1390.8 ± 12 kg/m3; viscosity (318.15 K, x1 = 1): 27.09 ± 1.3 mPa·s; mass density (323.15 K, x1 = 0.1024): 970.48 ± 0.41 kg/m3; viscosity (323.15 K, x1 = 0.1024): 2.094 ± 0.084 mPa·s; mass density (323.15 K, x1 = 0.2019): 1086.71 ± 0.6 kg/m3; viscosity (323.15 K, x1 = 0.2019): 3.283 ± 0.13 mPa·s; mass density (323.15 K, x1 = 0.2973): 1163.66 ± 1.1 kg/m3; viscosity (323.15 K, x1 = 0.2973): 4.64 ± 0.19 mPa·s; mass density (323.15 K, x1 = 0.4011): 1223.97 ± 1.9 kg/m3; viscosity (323.15 K, x1 = 0.4011): 6.437 ± 0.27 mPa·s; mass density (323.15 K, x1 = 0.4988): 1266.46 ± 2.8 kg/m3; viscosity (323.15 K, x1 = 0.4988): 8.553 ± 0.36 mPa·s; mass density (323.15 K, x1 = 0.5962): 1299.4 ± 4 kg/m3; viscosity (323.15 K, x1 = 0.5962): 10.7 ± 0.46 mPa·s; mass density (323.15 K, x1 = 0.6997): 1327.7 ± 5.6 kg/m3; viscosity (323.15 K, x1 = 0.6997): 13.27 ± 0.58 mPa·s; mass density (323.15 K, x1 = 0.7931): 1348.94 ± 7.3 kg/m3; viscosity (323.15 K, x1 = 0.7931): 15.77 ± 0.71 mPa·s; mass density (323.15 K, x1 = 0.9014): 1369.87 ± 9.5 kg/m3; viscosity (323.15 K, x1 = 0.9014): 19.26 ± 0.89 mPa·s; mass density (323.15 K, x1 = 1): 1386.03 ± 12 kg/m3; viscosity (323.15 K, x1 = 1): 23.14 ± 1.1 mPa·s
